This passage reports IC50 results from patent US9556179B2 (BRISTOL-MYERS SQUIBB COMPANY, priority 2012, dated 2017).

By IC50 is commonly meant the concentration needed to halve the response being measured. A higher IC50 goes with weaker potency in that assay.

In one assay the target is CK1δ (Homo sapiens (Human), UniProt P48730). The experiment in a line: CK1δ kinase assay (Caliper LABCHIP electrophoretic separation of fluoresceinated peptide substrate and product). The format is biochemical. To be noted: 200 pM enzyme, 50 μM ATP, 22 hours at room temperature. On the procedure: (§1) CK1ε and CK1δ Kinase Assays
Sequence of CK1δ (P48730 whole entry): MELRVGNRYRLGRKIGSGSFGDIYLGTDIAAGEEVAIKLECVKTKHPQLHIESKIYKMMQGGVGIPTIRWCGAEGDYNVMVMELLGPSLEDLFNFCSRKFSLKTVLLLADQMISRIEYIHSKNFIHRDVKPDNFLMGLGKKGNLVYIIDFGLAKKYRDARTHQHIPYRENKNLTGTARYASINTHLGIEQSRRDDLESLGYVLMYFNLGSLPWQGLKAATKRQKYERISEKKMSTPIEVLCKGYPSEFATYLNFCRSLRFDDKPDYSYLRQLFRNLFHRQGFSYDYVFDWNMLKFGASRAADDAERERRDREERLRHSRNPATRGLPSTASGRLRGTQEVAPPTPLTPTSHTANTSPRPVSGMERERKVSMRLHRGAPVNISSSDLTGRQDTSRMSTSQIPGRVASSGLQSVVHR
(§2) The kinase assay was performed in V-bottom 384-well plates. […] The reaction was incubated at room temperature for 22 hours and terminated by adding 45 μl of 35 mM EDTA to each sample. The reaction mixture was analyzed on the Caliper LABCHIP®3000 (Caliper, Hopkinton, Mass.) by electrophoretic separation of the unphosphorylated substrate and phosphorylated product. […] Compounds were dissolved at 10 mM in dimethylsulfoxide (DMSO) and evaluated at eleven concentrations. IC50 values were derived by non-linear regression analysis.

The target in a further assay is CK1ε (Homo sapiens (Human), UniProt P49674). The experiment in a line: CK1ε kinase assay (Caliper LABCHIP electrophoretic separation of fluoresceinated peptide substrate and product). The note with it: 200 pM enzyme, 50 μM ATP, 22 hours at room temperature. The format is biochemical. Here is the method: as §1, §2
Sequence of CK1ε (P49674 whole entry): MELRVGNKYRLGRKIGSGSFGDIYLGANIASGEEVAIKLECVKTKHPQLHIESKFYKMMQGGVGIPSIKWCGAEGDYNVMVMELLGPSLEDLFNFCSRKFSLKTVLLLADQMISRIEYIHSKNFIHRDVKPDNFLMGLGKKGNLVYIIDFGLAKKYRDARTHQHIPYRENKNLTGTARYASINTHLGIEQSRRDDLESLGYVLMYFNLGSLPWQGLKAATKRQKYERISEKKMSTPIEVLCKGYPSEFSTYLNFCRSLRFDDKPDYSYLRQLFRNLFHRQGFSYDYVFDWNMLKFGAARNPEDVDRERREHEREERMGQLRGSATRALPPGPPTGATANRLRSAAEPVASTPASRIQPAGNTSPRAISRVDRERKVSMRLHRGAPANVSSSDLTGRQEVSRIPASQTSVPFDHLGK

For `CN1CCC(n2cnc(-c3ccc(F)cc3)c2-c2ccc3nc(NC(=O)c4ccncc4)cn3n2)CC1` [Compound 2], the values for the IC50 against CK1δ and against CK1ε were 2.54 nM and 2.46 nM, respectively. The corresponding values for `O=C(Nc1cn2nc(-c3c(-c4ccc(F)cc4)ncn3C3CCN(Cc4ccon4)CC3)ccc2n1)c1ccncc1` [Compound 3, N-(6-(4-(4-fluorophenyl)-1-(1-(isoxazol-3-ylmethyl)piperidin-4-yl)-1H-imidazol-5-yl)imidazo[1,2-b]pyridazin-2-yl)isonicotinamide] are 0.306 nM and 0.298 nM.

Turning to `O=C(Nc1cn2nc(-c3c(-c4ccc(F)cc4)ncn3C3CCN(CCC(F)(F)F)CC3)ccc2n1)c1ccncc1` [Compound 4, N-(6-(4-(4-fluorophenyl)-1-(1-(3,3,3-trifluoropropyl)piperidin-4-yl)-1H-imidazol-5-yl)imidazo[1,2-b]pyridazin-2-yl)isonicotinamide], the results for the IC50 against CK1δ and against CK1ε were 0.302 nM and 2.25 nM, respectively. The matching figures for `O=C(Nc1cn2nc(-c3c(-c4ccc(F)cc4)ncn3C3CCN(C(=O)c4ccon4)CC3)ccc2n1)c1ccncc1` [Compound 5, N-(6-(4-(4-fluorophenyl)-1-(1-(isoxazole-3-carbonyl)piperidin-4-yl)-1H-imidazol-5-yl)imidazo[1,2-b]pyridazin-2-yl)isonicotinamide]: 0.379 nM and 1.42 nM. In the case of `O=C(Nc1cn2nc(-c3c(-c4ccc(F)cc4)ncn3C3CCN(C(=O)CC(F)(F)F)CC3)ccc2n1)c1ccncc1` [Compound 6, N-(6-(4-(4-fluorophenyl)-1-(1-(3,3,3-trifluoropropanoyl)piperidin-4-yl)-1H-imidazol-5-yl)imidazo[1,2-b]pyridazin-2-yl)isonicotinamide], the IC50 was determined as 0.264 nM against CK1δ and 1.17 nM at CK1ε. The matching figures for `O=C(Nc1cn2nc(-c3c(-c4ccc(F)cc4)ncn3C3CCNCC3)ccc2n1)c1ccnc(F)c1` [Compound 9, 2-fluoro-N-(6-(4-(4-fluorophenyl)-1-(piperidin-4-yl)-1H-imidazol-5-yl)imidazo[1,2-b]pyridazin-2-yl)isonicotinamide]: 0.92 nM and 0.681 nM.

As to `O=C(Nc1cn2nc(-c3c(-c4ccc(F)cc4)ncn3C3CCN(CCC(F)(F)F)CC3)ccc2n1)c1ccnc(F)c1` [Compound 10, 2-fluoro-N-(6-(4-(4-fluorophenyl)-1-(1-(3,3,3-trifluoropropyl)piperidin-4-yl)-1H-imidazol-5-yl)imidazo[1,2-b]pyridazin-2-yl)isonicotinamide], the results for the half-maximal inhibitory concentration (IC50) on CK1δ and against CK1ε were 0.847 nM and 2.27 nM, respectively. `CN1CCC(n2cnc(-c3ccc(F)cc3)c2-c2ccc3nc(NC(=O)c4ccnc(F)c4)cn3n2)CC1` [Compound 11]: the figures for the IC50 at CK1δ and at CK1ε were 0.847 nM and 0.654 nM, respectively. The corresponding values for `O=C(Nc1cn2nc(-c3c(-c4ccc(F)cc4)ncn3C3CCN(Cc4ccon4)CC3)ccc2n1)c1ccnc(F)c1` [Compound 12] are 0.847 nM and 0.283 nM. The corresponding values for `O=C(Nc1cn2nc(-c3c(-c4ccc(F)cc4)ncn3C3CCN(CCO)CC3)ccc2n1)c1ccnc(F)c1` [Compound 13, 2-fluoro-N-(6-(4-(4-fluorophenyl)-1-(1-(2-hydroxyethyl)piperidin-4-yl)-1H-imidazol-5-yl)imidazo[1,2-b]pyridazin-2-yl)isonicotinamide] are 0.214 nM and 0.61 nM. The corresponding values for `O=C(Nc1cn2nc(-c3c(-c4ccc(F)cc4)ncn3C3CCN(C(=O)c4cnon4)CC3)ccc2n1)c1ccnc(F)c1` [Compound 14, N-(6-(1-(1-(1,2,5-oxadiazole-3-carbonyl)piperidin-4-yl)-4-(4-fluorophenyl)-1H-imidazol-5-yl)imidazo[1,2-b]pyridazin-2-yl)-2-fuoroisonicotinamide] are 0.624 nM and 3.91 nM. On to `O=C(Nc1cn2nc(-c3c(-c4ccc(F)cc4)ncn3C3CCN(Cc4ccc(F)cc4)CC3)ccc2n1)c1ccnc(F)c1` [Compound 15, 2-fluoro-N-(6-(1-(1-(4-fluorobenzyI)piperidin-4-yl)-4-(4-fluorophenyl)-1H-imidazol-5-yl)imidazo[1,2-b]pyridazin-2-yl)isonicotinamide], for which the values for the IC50 against CK1δ and against CK1ε were 0.215 nM and 14.1 nM, respectively. The corresponding values for `O=C(Nc1cn2nc(-c3c(-c4ccc(F)cc4)ncn3C3CCN(Cc4ccncc4)CC3)ccc2n1)c1ccnc(F)c1` [Compound 16, 2-fluoro-N-(6-(4-(4-fluorophenyl)-1-(1-(pyridin-4-ylmethyl)piperidin-4-yl)-1H-imidazol-5-yl)imidazo[1,2-b]pyridazin-2-yl)isonicotinamide] are 0.295 nM and 3.06 nM.

On to `O=C(Nc1cn2nc(-c3c(-c4ccc(F)cc4)ncn3C3CCN(Cc4cocn4)CC3)ccc2n1)c1ccnc(F)c1` [Compound 17, 2-fluoro-N-(6-(4-(4-fluorophenyl)-1-(1-(oxazol-4-ylmethyl)piperidin-4-yl)-1H-imidazol-5-yl)imidazo[1,2-b]pyridazin-2-yl)isonicotinamide], for which the IC50 worked out at 2.14 nM against CK1δ and 21.8 nM against CK1ε.

Regarding `O=C(Nc1cn2nc(-c3c(-c4ccc(F)cc4)ncn3C3CCN(Cc4ncc[nH]4)CC3)ccc2n1)c1ccnc(F)c1` [Compound 18, N-(6-(1-(1-((1H-imidazol-2-yl)methyl)piperidin-4-yl)-4-(4-fluorophenyl)-1H-imidazol-5-yl)imidazo[1,2-b]pyridazin-2-yl)-2-fluoroisonicotinamide], the IC50 turned out to be 0.259 nM on CK1δ and 0.599 nM on CK1ε.

Turning to `O=C(Nc1cn2nc(-c3c(-c4ccc(F)cc4)ncn3C3CCN(Cc4cc[nH]n4)CC3)ccc2n1)c1ccnc(F)c1` [Compound 20, N-(6-(1-(1-((1H-pyrazol-3-yl)methyl)piperidin-4-yl)-4-(4-fluorophenyl)-1H-imidazol-5-yl)imidazo[1,2-b]pyridazin-2-yl)-2-fluoroisonicotinamide], the IC50 at CK1δ was 0.28 nM; against CK1ε, 1.78 nM.

Take `Cc1nn(C)cc1CN1CCC(n2cnc(-c3ccc(F)cc3)c2-c2ccc3nc(NC(=O)c4ccnc(F)c4)cn3n2)CC1` [Compound 21]: the concentration for half-maximal inhibition (IC50) was found to be 0.17 nM against CK1δ and 5.56 nM against CK1ε.

For the compound `O=C(Nc1cn2nc(-c3c(-c4ccc(F)cc4)ncn3C3CCN(Cc4c[nH]cn4)CC3)ccc2n1)c1ccnc(F)c1` [Compound 22], the results for the IC50 on CK1δ and against CK1ε were 0.101 nM and 1.29 nM, respectively.

In the case of `O=C(Nc1cn2nc(-c3c(-c4ccc(F)cc4)ncn3C3CCN(CCN4CCOCC4)CC3)ccc2n1)c1ccnc(F)c1` [Compound 23, 2-fluoro-N-(6-(4-(4-fluorophenyl)-1-(1-(2-morpholinoethyl)piperidin-4-yl)-1H-imidazol-5-yl)imidazo[1,2-b]pyridazin-2-yl)isonicotinamide], the IC50 against CK1δ came out at 0.183 nM; against CK1ε, 0.675 nM.

Regarding `CSCCCN1CCC(n2cnc(-c3ccc(F)cc3)c2-c2ccc3nc(NC(=O)c4ccnc(F)c4)cn3n2)CC1` [Compound 26, 2-fluoro-N-(6-(4-(4-fluorophenyl)-1-(1-(3-(methylthio)propyl)piperidin-4-yl)-1H-imidazol-5-yl)imidazo[1,2-b]pyridazin-2-yl)isonicotinamide], the values for the IC50 against CK1δ and against CK1ε were 0.449 nM and 2.23 nM, respectively. The corresponding values for `Cn1ccnc1CN1CCC(n2cnc(-c3ccc(F)cc3)c2-c2ccc3nc(NC(=O)c4ccnc(F)c4)cn3n2)CC1` [Compound 27, 2-fluoro-N-(6-(4-(4-fluorophenyl)-1-(1-((1-methyl-1H-imidazol-2-yl)methyl)piperidin-4-yl)-1H-imidazol-5-yl)imidazol[1,2-b]pyridazin-2-yl)isonicotinamide] are 0.265 nM and 1.13 nM. The corresponding values for `O=C(Nc1cn2nc(-c3c(-c4ccc(F)cc4)ncn3C3CCN(CC4CC4)CC3)ccc2n1)c1ccnc(F)c1` [Compound 28, N-(6-(1-(1-(cyclopropylmethyl)piperidin-4-yl)-4-(4-fluorophenyl)-1H-imidazol-5-yl)imidazo[1,2-6]pyridazin-2-yl)-2-fluoroisonicotinamide] are 0.207 nM and 1.27 nM.

In the case of `O=C(Nc1cn2nc(-c3c(-c4ccc(F)cc4)ncn3C3CCN(C(=O)C4CC(F)(F)C4)CC3)ccc2n1)c1ccnc(F)c1` [Compound 67, N-(6-(1-(1-(3,3-difluorocyclobutanecarbonyl)piperidin-4-yl)-4-(4-fluorophenyl)-1H-imidazol-5-yl)imidazo[1,2-b]pyridazin-2-yl)-2-fluoroisonicotinamide], at CK1δ, the IC50 is 0.116 nM. Still for that read-out and setting: then `O=C(Nc1cn2nc(-c3c(-c4ccc(F)cc4)ncn3C3CCN(C(=O)C4CCC4)CC3)ccc2n1)c1ccnc(F)c1` [Compound 68, N-(6-(1-(1-(cyclobutanecarbonyl)piperidin-4-yl)-4-(4-fluorophenyl)-1H-imidazol-5-yl)imidazo[1,2-b]pyridazin-2-yl)-2-fluoroisonicotinamide], with 0.193 nM; and `O=C(Nc1cn2nc(-c3c(-c4ccc(F)cc4)nc4ccccn34)ccc2n1)C1CC1` [Compound 185, N-(6-(2-(4-fluorophenyl)imidazo[1,2-a]pyridin-3-yl)imidazo[1,2-b]pyridazin-2-yl)cyclopropanecarboxamide], with 3.8 nM. The same measure, in the same setting: next, `O=C(Nc1cn2nc(-c3c(-c4ccc(Cl)cc4)ncn3CC(F)F)ccc2n1)c1ccnc(F)c1` [Compound 244, N-(6-(4-(4-chlorophenyl)-1-(2,2-difluoroethyl)-1H-imidazol-5-yl)imidazo[1,2-b]pyridazin-2-yl)-2-fluoroisonicotinamide]: 0.204 nM; `Cc1nc(-c2ccc(F)cc2)c(-c2ccc3nc(NC(=O)C(=O)c4ccccc4)cn3n2)n1C` [Compound 317, N-(6-(4-(4-fluorophenyl)-1,2-dimethyl-1H-imidazol-5-yl)imidazo[1,2-b]pyridazin-2-yl)-2-oxo-2-phenylacetamide]: 1.21 nM.
